The values below come from patent US9145392B2, “Imidazole amines as modulators of kinase activity” (Merck Patent GmbH, priority 2011, dated 2015).

One assay deals with P70S6K (T412E mutant) (Homo sapiens (Human), UniProt P23443, T412E). As to the kind of experiment: P70S6K enzyme assay. The assay is classed as biochemical. The following applies: read-out: IC50 p70S6K. Put shortly: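 Phosphorylated product and substrate peptide separated by microfluidic capillary electrophoresis (Caliper LabChip 3000), product peaks resolving before substrate.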

In the next assay the target is His-AKT (Full Length) (Homo sapiens (Human), UniProt P31749). The assay can be described thus: AKT enzyme assay. The assay is classed as biochemical. Particulars: read-out: IC50 AKT.

The structures appear in SMILES notation.

P70S6K (T412E mutant), sequence (P23443 whole entry T412E): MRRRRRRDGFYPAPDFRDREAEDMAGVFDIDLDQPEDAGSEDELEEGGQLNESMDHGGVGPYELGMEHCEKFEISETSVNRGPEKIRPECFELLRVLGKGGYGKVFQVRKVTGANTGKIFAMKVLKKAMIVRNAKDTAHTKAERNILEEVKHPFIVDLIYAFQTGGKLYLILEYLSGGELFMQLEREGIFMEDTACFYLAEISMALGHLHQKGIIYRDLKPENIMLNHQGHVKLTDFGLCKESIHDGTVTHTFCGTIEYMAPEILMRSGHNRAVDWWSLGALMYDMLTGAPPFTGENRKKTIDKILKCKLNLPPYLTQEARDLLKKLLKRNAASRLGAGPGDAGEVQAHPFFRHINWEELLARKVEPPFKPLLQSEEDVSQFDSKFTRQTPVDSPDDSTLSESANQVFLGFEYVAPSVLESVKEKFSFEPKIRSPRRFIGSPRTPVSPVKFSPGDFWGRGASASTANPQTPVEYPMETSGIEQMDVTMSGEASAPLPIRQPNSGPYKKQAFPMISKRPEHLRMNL
His-AKT (Full Length), sequence (P31749 whole entry): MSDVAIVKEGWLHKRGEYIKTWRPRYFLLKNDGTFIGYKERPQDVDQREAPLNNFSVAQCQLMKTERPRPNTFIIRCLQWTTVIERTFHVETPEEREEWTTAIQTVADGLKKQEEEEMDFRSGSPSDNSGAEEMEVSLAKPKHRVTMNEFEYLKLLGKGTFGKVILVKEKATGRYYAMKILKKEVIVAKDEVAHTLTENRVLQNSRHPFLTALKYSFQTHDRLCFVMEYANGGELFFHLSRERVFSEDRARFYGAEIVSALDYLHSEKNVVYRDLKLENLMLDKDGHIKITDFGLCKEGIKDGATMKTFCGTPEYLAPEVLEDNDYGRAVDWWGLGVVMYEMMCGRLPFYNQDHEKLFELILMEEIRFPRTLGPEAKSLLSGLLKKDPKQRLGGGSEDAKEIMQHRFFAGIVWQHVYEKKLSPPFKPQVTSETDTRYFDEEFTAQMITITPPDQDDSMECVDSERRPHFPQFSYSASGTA

Take `COc1c(N)ncnc1N1CCC(c2nc(-c3ccc(F)c(C(F)(F)F)c3)cn2C)CC1` [Compound 9, 6-{4-[4-(4-Fluoro-3-trifluoromethyl-phenyl)-1-methyl-1H-imidazol-2-yl]-piperidin-1-yl}-5-methoxy-pyrimidin-4-ylamine]: the IC50 is 2.1 nM at P70S6K (T412E mutant) and 440 nM at His-AKT (Full Length).

As for `NCCn1cc(-c2ccc(F)c(C(F)(F)F)c2)nc1C1CCN(c2ncnc(N)c2C(N)=O)CC1` [Compound 159, 4-amino-6-(4-(1-(2-aminoethyl)-4-(4-fluoro-3-(trifluoromethyl)phenyl)-1H-imidazol-2-yl)piperidin-1-yl)pyrimidine-5-carboxamide], the IC50 on P70S6K (T412E mutant) worked out at 1.5 nM; on His-AKT (Full Length) it was 15 nM.

With `CCOc1c(N)ncnc1N1CCC(c2nc(-c3ccc(F)c(C)c3)cn2CC2CNC2)CC1` [Compound 185, 6-(4-(1-(azetidin-3-ylmethyl)-4-(4-fluoro-3-methylphenyl)-1H-imidazol-2-yl)piperidin-1-yl)-5-ethoxypyrimidin-4-amine], the IC50 on P70S6K (T412E mutant) is 2.2 nM; at His-AKT (Full Length), 6.6 nM.

For the compound `CC(C)CNCCn1cc(-c2ccc(F)c(C(F)(F)F)c2)nc1C1CCN(c2ncnc(N)c2C#N)CC1` [Compound 372, 4-Amino-6-{4-[4-(4-fluoro-3-trifluoromethyl-phenyl)-1-(2-isobutylamino-ethyl)-1H-imidazol-2-yl]-piperidin-1-yl}-pyrimidine-5-carbonitrile], the half-maximal inhibitory concentration (IC50) on P70S6K (T412E mutant) turned out to be 0.2 nM; at His-AKT (Full Length), 0.7 nM.

Consider `COc1ccc(-c2cn(CCN3CCC3)c(C3CCN(c4ncnc(N)c4C(N)=O)CC3)n2)cc1Cl` [Compound 347], for which the IC50 was 87 nM on P70S6K (T412E mutant) and 990 nM on His-AKT (Full Length).

In the case of `Nc1ncnc(N2CCC(c3nc(-c4ccc(F)c(C(F)(F)F)c4)cn3CCN3CCCC3)CC2)c1-c1ccc(C(=O)O)cc1` [Compound 225], the IC50 at P70S6K (T412E mutant) was 5.8 nM; at His-AKT (Full Length) it was 12 nM.

In the case of `Cc1ccc(-c2cn(CCN3CCC3)c(C3CCN(c4ncnc(N)c4C#N)CC3)n2)cc1Cl` [Compound 322], the IC50 is 1.3 nM on P70S6K (T412E mutant) and 13 nM on His-AKT (Full Length).

On to `CCOc1c(N)ncnc1N1CCC(c2nc(-c3ccc(F)c(C)c3)cn2CCN(C)C)CC1` [Compound 293], for which the IC50 at P70S6K (T412E mutant) was found to be 1 nM; on His-AKT (Full Length), 1.7 nM.

`Nc1ncnc(N2CCC(c3nc(-c4ccc(F)cc4)cn3CCN3CCCC3)CC2)c1Cl` [Compound 237]: the IC50 turned out to be 0.8 nM at P70S6K (T412E mutant) and 3.3 nM at His-AKT (Full Length).

With `N#Cc1c(N)ncnc1N1CCC(c2nc(-c3ccc(F)c(C(F)(F)F)c3)cn2CCO)CC1` [Compound 357, 4-Amino-6-{4-[4-(4-fluoro-3-trifluoromethyl-phenyl)-1-(2-hydroxy-ethyl)-1H-imidazol-2-yl]-piperidin-1-yl}-pyrimidine-5-carbonitrile], the IC50 on P70S6K (T412E mutant) was 0.8 nM; on His-AKT (Full Length) it was 130 nM.

For `NC(=O)c1c(N)ncnc1N1CCC(c2nc(-c3ccc(OC(F)F)cc3)cn2CCN2CCC2)CC1` [Compound 81, 4-Amino-6-{4-[1-(2-azetidin-1-yl-ethyl)-4-(4-difluoromethoxy-phenyl)-1H-imidazol-2-yl]-piperidin-1-yl}-pyrimidine-5-carboxylic acid amide], the IC50 amounted to 98 nM on P70S6K (T412E mutant) and 15000 nM on His-AKT (Full Length).

For `CCc1c(N)ncnc1N1CCC(c2nc(-c3ccc(F)c(F)c3)cn2CCN2CCC2)CC1` [Compound 282], the IC50 on P70S6K (T412E mutant) worked out at 3.8 nM; at His-AKT (Full Length), 24 nM.

In the case of `N#Cc1c(N)ncnc1N1CCC(c2nc(-c3ccc(F)c(F)c3)cn2CCN2CCCC2)CC1` [Compound 306, 4-amino-6{4-(3,4-difluorophenyl-1-2-(pyrrolidin-1-yl-ethyl)-1H-imidazol-2-yl]-piperidin-1-yl}-pyrimidin-5-carbonitrile], the IC50 turned out to be 2 nM on P70S6K (T412E mutant) and 7.6 nM on His-AKT (Full Length).

A word on the IC50: it is the point on the concentration scale where inhibition reaches its midpoint.
